The source of these data is patent publication US20050136444A1 (priority 2003, published 2005).

The target in test [1] is T1, NPFF2 (Homo sapiens, UniProt Q9Y5X5).
T1 construct: expressed in transfected cells; host or cells: NIH3T3
Kind of test: Receptor Selection and Amplification Technology (R-SAT) functional assay, NPFF2. Particulars: Table 1; for Emax / EC50: R-SAT; for Emax: Efficacy is relative to endogenous ligand, read-out: NPFF2 % Efficacy; for EC50: read-out: NPFF2 pEC50 (converted). The class given is cell-based. On the procedure:
(§1) Briefly, NIH3T3 cells were grown in 96 well tissue culture plates to 70-80% confluence. Cells were transfected for 16-20 h h with plasmid DNAs using Polyfect (Qiagen Inc.) as per manufacturer's protocols. R-SAT's were generally performed with 40 ng/well of receptor and 20 ng/well of β-galactosidase plasmid DNA. All receptor and G-protein constructs used were in the pSI-derived mammalian expression vector (Promega Inc) as described previously. […] For large-scale transfections, cells were transfected for 16-20 h, then trypsinized and frozen in DMSO. Frozen cells were later thawed, plated at ˜20,000 cells per well of a 96 half-area well plate that contained drug. With both methods, cells were then grown in a humidified atmosphere with 5% ambient CO2 for five days. Media was then removed from the plates and marker gene activity was measured by the addition of the β-galactosidase substrate o-nitrophenyl β-D-galactopyranoside (ONPG, in PBS with 0.5% NP-40). The resulting colorimetric reaction was measured in a spectrophotometric plate reader (Titertek Inc.) at 420 nm. All data were analyzed using the computer program XLFit (IDBSm).
(§2) R-SAT assay was conducted as set forth in […]

In test [2] the target is NPFF1 (Homo sapiens, UniProt Q9GZQ6). Kind of test: Receptor Selection and Amplification Technology (R-SAT) functional assay, NPFF1. The settings on record: R-SAT, Table 1; for Emax: Efficacy is relative to endogenous ligand, read-out: NPFF1 % Efficacy; for EC50: NA = No activity detectable at the highest dose tested (20 μM), read-out: NPFF1 pEC50 (converted). The format is cell-based. More on the design: expressed in transfected cells; host or cells: NIH3T3. On the procedure: as §1, §2

The mark [3] stands for this setting: NA = No activity detectable at the highest dose tested (20 μM).

pEC50: −log10 of the molar value. Counter-ions that a name gives are not always drawn. Like-named read-outs stand apart in the source and are kept apart here.

Chain of NPFF1 (Q9GZQ6 whole entry, species assumed): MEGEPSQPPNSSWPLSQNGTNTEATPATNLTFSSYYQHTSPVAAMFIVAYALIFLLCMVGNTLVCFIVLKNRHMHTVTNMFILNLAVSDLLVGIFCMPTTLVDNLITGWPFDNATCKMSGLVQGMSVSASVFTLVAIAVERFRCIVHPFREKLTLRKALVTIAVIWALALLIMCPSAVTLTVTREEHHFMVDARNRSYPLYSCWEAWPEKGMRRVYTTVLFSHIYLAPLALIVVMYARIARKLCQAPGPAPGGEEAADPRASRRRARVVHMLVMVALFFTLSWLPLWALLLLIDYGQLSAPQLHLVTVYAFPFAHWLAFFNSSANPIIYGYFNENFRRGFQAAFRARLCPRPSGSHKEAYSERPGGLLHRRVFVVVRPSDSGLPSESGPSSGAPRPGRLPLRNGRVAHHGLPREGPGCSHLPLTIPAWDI
T1 sequence (Q9Y5X5 103-522): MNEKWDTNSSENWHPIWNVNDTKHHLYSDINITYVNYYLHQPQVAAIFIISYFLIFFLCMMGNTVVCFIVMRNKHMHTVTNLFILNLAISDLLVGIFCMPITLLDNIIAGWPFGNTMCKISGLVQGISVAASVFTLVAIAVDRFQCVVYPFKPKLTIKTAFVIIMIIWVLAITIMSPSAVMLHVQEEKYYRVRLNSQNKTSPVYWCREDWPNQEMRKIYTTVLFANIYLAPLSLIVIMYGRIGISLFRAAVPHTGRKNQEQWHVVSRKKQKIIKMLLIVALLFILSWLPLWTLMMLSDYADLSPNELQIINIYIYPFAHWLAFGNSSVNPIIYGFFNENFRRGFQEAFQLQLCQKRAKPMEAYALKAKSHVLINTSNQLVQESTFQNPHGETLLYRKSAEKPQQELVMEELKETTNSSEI

For `N=C(N)NN=Cc1cc(C(F)(F)F)ccc1Cl` [Compound 2069, 1-[2-Chloro-5-(trifluoromethyl)benzylideneamino]guanidine Hydrochloride], the figures for the Emax in test [1] and in test [2] were 40% and 8%, respectively. The EC50 in test [1] (setting [3]) is 3.16 µM.
For `CC(=NNC(=N)N)c1ccc2c(c1)OCCO2` [Compound 2040, 1-[1-(2,3-Dihydro-benzo[1,4]dioxin-6-yl)ethylideneamino]guanidine Hydrochloride], in that order: 65%, 18% and 7.94 µM.
Regarding `N=C(N)NN=Cc1ccc(O)c(Cl)c1` [Compound 2031, 1-(3-Chloro-4-hydroxybenzylideneamino)guanidine Hydrochloride], the Emax turned out to be 16% in test [1] and 1% in test [2].
For `COc1ccc(C=NNC(=N)N)cc1C(F)(F)F` [Compound 2073, 1-[4-Methoxy-3-(trifluoromethyl)benzylideneamino]guanidine Hydrochloride], the Emax was 51% in test [1] and 13% in test [2]. Moreover, the EC50 in test [1] (setting [3]) was 1.58 µM.
As to `CCN(CC)c1ccc(C=NNC(=N)N)c(OC)c1` [Compound 3043, 1-(2-Methoxy-4-N,N-diethylaminobenzylideneamino)guanidine Hydrochloride], the Emax in test [1] turned out to be 92%; in test [2], 60%. The EC50 in test [1] (setting [3]) and in test [2] was 1 µM each time.
As to `CC(C)Oc1ccc(C=NNC(=N)N)cc1` [Compound 2025, 1-(4-Isopropoxybenzylideneamino)guanidine], the Emax in test [1] came to 87%; in test [2] it was 51%. Also, the EC50 in test [1] (setting [3]) and in test [2] was 3.98 µM each time.
Turning to `Cc1cc(C=NNC(=N)N)cc(C)c1O` [Compound 2033, 1-(3,5-Dimethyl-4-hydroxybenzylideneamino)guanidine Hydrochloride], the Emax was found to be 33% in test [1] and 7% in test [2]. Besides, the EC50 in test [1] (setting [3]) was 10 µM.
As for `COc1ccc2ccccc2c1C=NNC(=N)N` [Compound 3007, 1-[1-(2-Methoxy-naphthalen-1-yl)methylideneamino]guanidine Hydrochloride], the values for the Emax in test [1] and in test [2] were 84% and 24%, respectively. The EC50 was 6.31 µM in test [1] (setting [3]) and 7.94 µM in test [2].
Taken in the same sequence, the figures for `CC(=NNC(=N)N)c1ccc(C)c(C)c1` [Compound 3021, 1-[1-(3,4-Dimethylphenyl)ethylideneamino]guanidine Hydrochloride] were 70%, 32%, 2.51 µM and 10 µM.
For `COc1ccc(C=NNC(=N)N)c(C)c1C` [Compound 2034, 1-(4-Methoxy-2,3-dimethylbenzylideneamino)guanidine Hydrochloride], in that order: 105%, 26%, 2.51 µM and 3.98 µM.
For `CCCCCCc1ccc(C(C)=NNC(=N)N)cc1` [Compound 3023, Hydrochloride], in that order: 22%, 29%, 1.26 µM and 0.501 µM.
Turning to `Cc1cccc(C=NNC(=N)N)c1` [Compound 3018, 1-(3-Methylbenzylideneamino)guanidine Hydrochloride], the Emax in test [1] worked out at 54%; in test [2], 13%. The EC50 in test [1] (setting [3]) was 5.01 µM.
For `CC(=NNC(=N)N)c1ccc(Br)cc1` [Compound 3016, 1-[1-(4-Bromophenyl)ethylideneamino]guanidine Hydrochloride], in that order: 74%, 16% and 1.58 µM.
For the compound `CCc1ccc(C(C)=NNC(=N)N)cc1` [Compound 3020, 1-[1-(4-Ethylphenyl)ethylideneamino]guanidine Hydrochloride], the Emax in test [1] was 115%; in test [2] it was 41%. Further, the EC50 is 1.26 µM in test [1] (setting [3]) and 3.98 µM in test [2].
Regarding `N=C(N)NN=Cc1ccc(F)c2ccccc12` [Compound 2072, 1-[(4-Fluoro-1-naphthalen-1-yl)methylideneamino]guanidine Hydrochloride], the Emax in test [1] is 50%; in test [2] it was 11%. Also, in test [1] (setting [3]), the EC50 was 2 µM.
For `CC(=NNC(=N)N)c1ccc(N2CCCCC2)cc1` [Compound 3039, 1-[1-(4-Piperidin-1-yl-phenyl)ethylideneamino]guanidine Hydrochloride], the values for the Emax in test [1] and in test [2] were 46% and 43%, respectively. The results for the EC50 in test [1] (setting [3]) and in test [2] were 0.501 µM and 0.398 µM, respectively.
For `CCN(CC)c1ccc(C=NNC(=N)N)c(O)c1` [Compound 3037, 1-(4-Diethylamino-2-hydroxybenzylideneamino)guanidine Hydrochloride], in that order: 59%, 39%, 3.16 µM and 0.794 µM.
For `Cc1ccc(C=NNC(=N)N)cc1C` [Compound 3019, 1-(3,4-Dimethylbenzylideneamino)guanidine Hydrochloride], the Emax in test [1] came out at 86%; in test [2], 12%. In addition, the EC50 in test [1] (setting [3]) is 2.51 µM.
On to `COc1cc(Cl)cc(C=NNC(=N)N)c1OC` [Compound 2059, 1-(5-Chloro-2,3-dimethoxybenzylideneamino)guanidine Hydrochloride], for which the Emax was 79% in test [1] and 31% in test [2]. For the same compound, the EC50 was 5.01 µM in test [1] (setting [3]) and 10 µM in test [2].
As to `Cc1cc(C=NNC(=N)N)ccc1F` [Compound 2012, 1-(4-Fluoro-3-methylbenzylideneamino)guanidine Hydrochloride], the results for the Emax in test [1] and in test [2] were 56% and 9%, respectively. The EC50 in test [1] (setting [3]) is 1.58 µM.
`COc1cccc(C=NNC(=N)N)c1OCc1ccccc1` [Compound 3006, 1-(2-Benzyloxy-3-methoxybenzylideneamino)guanidine Hydrochloride]: the values for the Emax in test [1] and in test [2] were 47% and 14%, respectively. In test [1] (setting [3]), the EC50 was 0.794 µM.
Taken in the same sequence, the figures for `N=C(N)NN=Cc1ccc(F)c(Br)c1` [Compound 2010, 1-(3-Bromo-4-fluorobenzylideneamino)guanidine Hydrochloride] were 53%, 7% and 1.26 µM.
As for `[H]/N=C(\N)NN=Cc1ccc(Cl)cc1` [Compound 4008, 1-(4-Chlorobenzylideneamino)guanidine Hydrochloride], the values for the Emax in test [1] and in test [2] were 64% and 47%, respectively. Further, the values for the EC50 in test [1] (setting [3]) and in test [2] were 6.31 µM and 3.98 µM, respectively.
`N=C(N)NN=Cc1ccc2c(c1)OCCCO2` [Compound 2038, 1-[3,4-Dihydro-2H-benzo[b][1,4]dioxepin-7-yl)methylideneamino]guanidine Hydrochloride]: the Emax is 77% in test [1] and 9% in test [2]. Besides, the EC50 in test [1] (setting [3]) was 3.98 µM.
Taken in the same sequence, the figures for `N=C(N)NN=Cc1cccc(C(F)(F)F)c1F` [Compound 2065, 1-[2-Fluoro-3-(trifluoromethyl)benzylideneamino]guanidine Hydrochloride] were 45%, 9% and 3.16 µM.
`CCN(CC)c1ccc(C=NNC(=N)N)cc1` [Compound 3038, 1-(4-Diethylaminobenzylideneamino)guanidine Hydrochloride]: the results for the Emax in test [1] and in test [2] were 65% and 72%, respectively. In addition, the EC50 in test [1] (setting [3]) is 1.26 µM; in test [2], 1 µM.
On to `CCC(=NNC(=N)N)c1ccc(Cl)c(Cl)c1` [Compound 2056, 1-(3,4-Dichlorophenyl)-1-(propylideneaminoguanidine) Hydrochloride], for which the values for the Emax in test [1] and in test [2] were 73% and 6%, respectively. The EC50 in test [1] (setting [3]) is 0.501 µM.
For the compound `CC(=NNC(=N)N)c1ccc2c(c1)OCO2` [Compound 3032, 1-[1-(Benzo[1,3]dioxol-5-yl)ethylideneamino]guanidine Hydrochloride], the Emax in test [1] was found to be 78%; in test [2] it was 36%. Also, the EC50 is 3.98 µM in test [1] (setting [3]) and 12.6 µM in test [2].
Taken in the same sequence, the figures for `COc1cc(OC)c(C=NNC(=N)N)cc1Br` [Compound 4015, 1-(5-Bromo-2,4-dimethoxybenzylideneamino)guanidine Hydrochloride] were 64%, 37%, 2 µM and 7.94 µM.
As to `N=C(N)NN=Cc1ccc2c(c1)Cc1ccccc1-2` [Compound 2028, Hydrochloride], in test [1] (NPFF2 pEC50, R-SAT, NA = No activity detectable at the highest dose tested (20 μM)), the pEC50 is 5.90. Further, the Emax in test [1] is 68%. Further, in test [2], the Emax turned out to be 37% and the EC50 is 1.58 µM.
